{"source": "patent US20250222117A1", "about": "“COMPOUND COMPRISING RALTITREXED OR 5-MTHF LINKED TO A THERAPEUTIC AGENT, COMPOSITION, AND METHOD OF USE” (PURDUE RESEARCH FOUNDATION, priority 2022, published 2025)", "test_system": "murine CD45+CD4+CD25+ Tregs", "assay": "Treg suppression assay: pre-treated Tregs co-cultured with CFSE-labeled effector T cells, flow cytometry", "format": "cell-based, mouse", "conditions": "Tregs pre-treated 10 nM for 3 hours, 1:4 ratio, 4 days", "method": "Murine CD45+CD4+CD25+ Tregs and CD45+CD4+CD25− effector T cells were isolated from healthy mice using a StemCell mouse Treg Isolation Kit (StemCell Technologies, Cambridge, MA). The cells were used in two different assays.\nFirst, Tregs that were either pre-treated with 10 nM TLR7-1A agonist for 3 hours or left untreated were co-cultured with CFSE-labeled effector T cells at 1:4 ratio, with or without CD3/CD28 activation beads. Incubation proceeded for 4 days before flow cytometry analysis.", "data": [{"smiles": "CCCCc1nc2c(N)nc3ccccc3c2n1CC(C)(C)CO", "note": "[TLR7-1A agonist, 3-(4-amino-2-butyl-1H-imidazo[4,5-c]quinolin-1-yl)-2,2-dimethylpropan-1-ol]", "values": [{"measurement": "effect on Treg suppression of CD4+ T cell proliferation", "value": "reversed the suppressive activity"}]}]}
